Experimental data from patent publication US9409952B2, “Peptide-compound cyclization method” (Chugai Seiyaku Kabushiki Kaisha, priority 2011, dated 2016).
Like-named read-outs stand apart in the source and are kept apart here. Starred links: 1 amine or outer side, 2 acyl side, 3 side chain; linkers in the order of their positions; H or OH if unused. Positions of bridges follow the written chain, without caps; N, C: chain ends. Non-standard residues stand in square brackets, D forms with d. Residues, ends and D or L forms follow the SMILES beside them. *: point of attachment. NMePhe(3-Cl) = CN[C@@H](Cc1cccc(Cl)c1)C(=O)O; Lys(Me2) = CN(C)CCCC[C@H](N)C(=O)O; NMeF = CN[C@@H](Cc1ccccc1)C(=O)O; NMeGABA = CN(CCCC(=O)[*:2])[*:1]; NMeβAla = CN(CCC(=O)[*:2])[*:1]; NMeL = CN[C@@H](CC(C)C)C(=O)O; Phg = N[C@H](C(=O)O)c1ccccc1; NMeV = CN[C@H](C(=O)O)C(C)C; NMeS = CN[C@@H](CO)C(=O)O; NMeA = CN[C@@H](C)C(=O)O; Piperidide = C1CCN(*)CC1; dNMeA = CN[C@H](C)C(=O)O; β3hA = C[C@H](N)CC(=O)O; Sar = CNCC(=O)O; tBu = CC(C)(C)*

Legend:
[1] = Metabolic stability in human hepatic microsome; assay type: in vitro ADME; conditions: microsomes
[2] = PAMPA (parallel artificial membrane permeability assay); assay type: in vitro ADME; conditions: PAMPA
Method in brief: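 Artificial membrane was 10% (w/v) egg lecithin plus 0.5% (w/v) cholesterol in dodecane on a PVDF filter. A 10 mM DMSO stock was added at 0.5% (v/v) to donor buffer (50 mM MOPSO, pH 6.5, 5.0% glycocholic acid). After 18 h at 37 °C, LC/MS or LC/UV gave donor and acceptor levels for Pe.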

[3] = pH 7.4, human hepatic microsome, NADPH(+), read-out: CL NADPH(+)
[4] = membrane permeation rate (Pe), 50 mM MOPSO buffer pH 6.5 with 5.0% glycocholic acid, 37° C., 18 hours, read-out: iPAMPA Pe

SMILES	microsomal CLint at 1 uM [1, 3]	Papp at 18 hours, 50 µM [2, 4]	microsomal CLint at 1 uM ([1]; human, pH 7.4, CL NADPH(+))	Papp at 18 hours, 50 µM ([2]; pH 6.5)
CC[C@H](C)[C@H](NC(=O)[C@H](Cc1ccccc1)N(C)C(=O)[C@H](Cc1ccccc1)N(C)C(=O)[C@@H]1CC(=O)N(C)CCC(=O)N[C@@H]([C@@H](C)CC)C(=O)N(C)[C@@H](Cc2ccccc2)C(=O)N(C)[C@@H](CC(C)C)C(=O)N[C@@H]([C@@H](C)O)C(=O)N(C)CC(=O)N(C)[C@@H](CC(C)C)C(=O)N[C@@H](C(C)C)C(=O)N(C)[C@@H](CC(C)C)C(=O)N1)C(=O)N1CCCCC1 [DP-961] ([NMeβAla]I[NMeF][NMeL]T[Sar][NMeL]V[NMeL]D[NMeF][NMeF]I-Piperidide; lactam N-10)	33 µL/min/mg	0.57 ×10⁻⁶ cm/s		
CC[C@H](C)[C@H](NC(=O)[C@H](CC(C)C)N(C)C(=O)[C@@H](NC(=O)[C@H](Cc1ccccc1)N(C)C(=O)[C@@H]1CC(=O)N(C)CCC(=O)N(C)[C@@H](Cc2cccc(Cl)c2)C(=O)N[C@@H](CC(C)C)C(=O)N[C@@H]([C@@H](C)O)C(=O)N[C@@H](CC(C)C)C(=O)N[C@@H]([C@@H](C)CC)C(=O)N(C)[C@@H](CC(C)C)C(=O)N(C)[C@@H](CC(C)C)C(=O)N1)[C@@H](C)CC)C(=O)N1CCCCC1 [DP-941] ([NMeβAla][NMePhe(3-Cl)]LTLI[NMeL][NMeL]D[NMeF]I[NMeL]I-Piperidide; lactam N-9)	49 µL/min/mg	0.1 ×10⁻⁶ cm/s		
CC[C@H](C)[C@H](NC(=O)[C@@H]1CC(=O)N[C@@H](C)C(=O)N[C@@H]([C@@H](C)O)C(=O)N[C@@H](CC(C)C)C(=O)N2CCC[C@H]2C(=O)N[C@@H](Cc2ccccc2)C(=O)N(C)[C@@H](Cc2ccccc2)C(=O)N(C)[C@@H](C(C)C)C(=O)N[C@@H](C)C(=O)N(C)[C@@H](CC(C)C)C(=O)N1)C(=O)N1CCCCC1 [DP-44] (ATLPF[NMeF][NMeV]A[NMeL]DI-Piperidide; lactam N-10)			59 µL/min/mg	20 ×10⁻⁶ cm/s
CC(C)[C@@H]1NC(=O)[C@H](C)N(C)C(=O)CNC(=O)[C@H]([C@@H](C)O)NC(=O)[C@H](C(C)C)N(C)C(=O)[C@H](C)NC(=O)[C@@H](C)N(C)C(=O)C[C@@H](C(=O)N(C)[C@@H](Cc2ccccc2)C(=O)N(C)[C@@H](Cc2ccccc2)C(=O)N[C@@H](C)C(=O)N2CCCCC2)NC(=O)[C@H](Cc2ccccc2)N(C)C(=O)[C@H](C)N(C)C1=O [DP-505] ([dNMeA]A[NMeV]TG[NMeA]V[NMeA][NMeF]D[NMeF][NMeF]A-Piperidide; lactam N-10)	18 µL/min/mg	6.8 ×10⁻⁶ cm/s		
CC(C)C[C@H]1C(=O)N[C@@H]([C@@H](C)O)C(=O)N(C)[C@@H](C)C(=O)N(C)[C@@H](CC(C)C)C(=O)N[C@@H](C(C)C)C(=O)N[C@H](C(=O)N(C)[C@@H](Cc2ccccc2)C(=O)N(C)[C@@H](Cc2ccccc2)C(=O)N[C@@H](C)C(=O)N2CCCCC2)CC(=O)N(C)[C@H](C)C(=O)N(C)[C@@H](Cc2ccccc2)C(=O)N(C)CC(=O)N1C [DP-214] ([dNMeA][NMeF][Sar][NMeL]T[NMeA][NMeL]VD[NMeF][NMeF]A-Piperidide; lactam N-9)	33 µL/min/mg	34 ×10⁻⁶ cm/s		
CC(C)C[C@H]1C(=O)N[C@H](C(=O)N2CCCCC2)CC(=O)N(C)[C@H](C)C(=O)N(C)[C@@H](Cc2ccccc2)C(=O)N(C)[C@@H](CC(C)C)C(=O)N[C@@H]([C@@H](C)O)C(=O)N(C)CC(=O)N[C@@H](COC(C)(C)C)C(=O)N1C [DP-527] ([dNMeA][NMeF][NMeL]T[Sar]S(tBu)[NMeL]D-Piperidide; lactam N-8)	30 µL/min/mg	11 ×10⁻⁶ cm/s		
CC[C@H](C)[C@@H]1NC(=O)[C@H](C)N(C)C(=O)[C@H](CC(C)C)NC(=O)[C@H]([C@@H](C)O)NC(=O)CNC(=O)[C@@H]2CCCN2C(=O)[C@H](COC(C)(C)C)NC(=O)[C@H](CC(C)C)N(C)C(=O)[C@H](Cc2ccccc2)NC(=O)CCCN(C)C(=O)C[C@@H](C(=O)N2CCCCC2)NC(=O)[C@H](Cc2ccccc2)N(C)C1=O [DP-107] ([NMeGABA]F[NMeL]S(tBu)PGTL[NMeA]I[NMeF]D-Piperidide; lactam N-12)	14 µL/min/mg	23 ×10⁻⁶ cm/s		
CC(C)C[C@@H]1NC(=O)[C@H](CC(C)C)NC(=O)[C@H](C)N(C)C(=O)C[C@@H](C(=O)N2CCCCC2)NC(=O)[C@H](C(C)C)N(C)C(=O)[C@H](CC(C)C)NC(=O)[C@H](Cc2ccccc2)NC(=O)[C@H]([C@@H](C)O)NC(=O)CN(C)C(=O)[C@H](CC(C)C)NC(=O)[C@H](c2ccccc2)NC1=O [DP-561] ([NMeA]LL[Phg]L[Sar]TFL[NMeV]D-Piperidide; lactam N-11)	48 µL/min/mg	24 ×10⁻⁶ cm/s		
CC(C)C[C@H]1C(=O)N(C)[C@@H](CC(C)C)C(=O)N[C@H](C(=O)N(C)[C@@H](Cc2ccccc2)C(=O)N[C@@H](C)C(=O)N2CCCCC2)CC(=O)N(C)CCC(=O)N(C)[C@@H](C)C(=O)N(C)[C@@H](CC(C)C)C(=O)N[C@@H]([C@@H](C)O)C(=O)N(C)[C@@H](Cc2ccccc2)C(=O)N[C@@H](C(C)C)C(=O)N(C)CC(=O)N1C [DP-194] ([NMeβAla][NMeA][NMeL]T[NMeF]V[Sar][NMeL][NMeL]D[NMeF]A-Piperidide; lactam N-10)	72 µL/min/mg	22 ×10⁻⁶ cm/s		
CC(C)C[C@@H]1NC(=O)[C@@H](C)N(C)C(=O)C[C@@H](C(=O)N2CCCCC2)NC(=O)[C@H](CC(C)C)N(C)C(=O)[C@H](Cc2ccccc2)N(C)C(=O)[C@H](CC(C)C)NC(=O)[C@H](Cc2ccccc2)N(C)C(=O)[C@H](C)N(C)C(=O)[C@H]([C@@H](C)O)NC1=O [DP-127] ([dNMeA]LT[NMeA][NMeF]L[NMeF][NMeL]D-Piperidide; lactam N-9)	194 µL/min/mg	47 ×10⁻⁶ cm/s		
CC[C@H](C)[C@@H]1NC(=O)CN(C)C(=O)[C@H]([C@@H](C)O)NC(=O)[C@H](C(C)C)N(C)C(=O)[C@@H](C)N(C)C(=O)C[C@@H](C(=O)N2CCCCC2)NC(=O)[C@H](CC(C)C)NC(=O)[C@H](Cc2ccccc2)N(C)C(=O)[C@H](CC(C)C)N(C)C(=O)[C@H](C)N(C)C1=O [DP-433] ([dNMeA][NMeV]T[Sar]I[NMeA][NMeL][NMeF]LD-Piperidide; lactam N-10)	35 µL/min/mg	45 ×10⁻⁶ cm/s		
CC(C)C[C@H]1C(=O)N[C@@H]([C@@H](C)O)C(=O)N(C)[C@@H](Cc2ccccc2)C(=O)N(C)[C@@H](CC(C)C)C(=O)NCC(=O)N(C)[C@@H](C(C)C)C(=O)N[C@@H](Cc2ccccc2)C(=O)N[C@H](C(=O)N(C)[C@@H](Cc2ccccc2)C(=O)N[C@@H](C)C(=O)N2CCCCC2)CC(=O)N(C)CCC(=O)N[C@@H](C(C)C)C(=O)N1C [DP-193] ([NMeβAla]V[NMeL]T[NMeF][NMeL]G[NMeV]FD[NMeF]A-Piperidide; lactam N-10)	124 µL/min/mg	53 ×10⁻⁶ cm/s		
CC(C)C[C@H]1C(=O)N[C@@H](C(C)C)C(=O)N[C@H](C(=O)N(C)[C@@H](Cc2ccccc2)C(=O)N(C)[C@@H](Cc2ccccc2)C(=O)N[C@@H](C)C(=O)N2CCCCC2)CC(=O)N(C)CC(=O)N(C)[C@@H](CC(C)C)C(=O)N(C)[C@@H](Cc2ccccc2)C(=O)N[C@@H]([C@@H](C)O)C(=O)N(C)[C@@H](C)C(=O)N(C)CC(=O)N1C [DP-407] ([Sar][NMeL][NMeF]T[NMeA][Sar][NMeL]VD[NMeF][NMeF]A-Piperidide; lactam N-9)	29 µL/min/mg	38 ×10⁻⁶ cm/s		
CC(C)C[C@H]1C(=O)N[C@H](C(=O)N2CCCCC2)CC(=O)N(C)CCC(=O)N[C@@H]([C@@H](C)O)C(=O)N(C)[C@@H](C)C(=O)N[C@@H](COC(C)(C)C)C(=O)N(C)[C@@H](Cc2ccccc2)C(=O)N1C [DP-532] ([NMeβAla]T[NMeA]S(tBu)[NMeF][NMeL]D-Piperidide; lactam N-7)	105 µL/min/mg	20 ×10⁻⁶ cm/s		
CC(C)C[C@@H]1NC(=O)[C@H](CO)N(C)C(=O)C[C@H](C)NC(=O)[C@H](CC(C)C)N(C)C(=O)[C@H](CC(C)C)N(C)C(=O)[C@@H](C)NC(=O)[C@H](C(C)C)NC(=O)[C@H](CC(C)C)N(C)C(=O)[C@H](C(C)C)NC(=O)[C@H](CC(C)C)N(C)C(=O)CN(C)C1=O [DP-652] (cyclo(L[Sar][NMeL]V[NMeL]V[dA][NMeL][NMeL][β3hA][NMeS]))	51 µL/min/mg	30 ×10⁻⁶ cm/s		
CC[C@H](C)[C@@H]1NC(=O)[C@H](C)NC(=O)C[C@@H](C(=O)N(C)[C@@H](C)C(=O)N[C@H](C(=O)N2CCC[C@H]2C(=O)N[C@H](C(=O)N[C@@H](C)C(=O)N2CCCCC2)C(C)C)[C@@H](C)CC)NC(=O)[C@@H]2CCCN2C(=O)[C@H](CC(C)C)NC(=O)[C@H](Cc2ccccc2)N(C)C(=O)[C@H]([C@@H](C)O)NC(=O)[C@H](Cc2ccccc2)N(C)C(=O)[C@H](C)N(C)C1=O [DP-665] (AI[NMeA][NMeF]T[NMeF]LPD[NMeA]IPVA-Piperidide; lactam N-9)			77 µL/min/mg	4 ×10⁻⁶ cm/s
CC[C@H](C)[C@H](NC(=O)[C@H](C)N(C)C(=O)[C@@H]1CC(=O)N[C@H](C(C)C)C(=O)N(C)[C@@H](C)C(=O)N(C)[C@@H](CC(C)C)C(=O)N(C)[C@@H](CC(C)C)C(=O)N(C)CC(=O)N(C)[C@@H](Cc2ccccc2)C(=O)N[C@@H](C)C(=O)N(C)[C@@H](Cc2ccccc2)C(=O)N(C)[C@@H](CC(C)C)C(=O)N[C@@H]([C@@H](C)O)C(=O)N1)C(=O)N1CCCCC1 [DP-584] ([dV][NMeA][NMeL][NMeL][Sar][NMeF]A[NMeF][NMeL]TD[NMeA]I-Piperidide; lactam N-11)	20 µL/min/mg	18 ×10⁻⁶ cm/s		
CC(C)C[C@H]1C(=O)N(C)[C@@H](CC(C)C)C(=O)N[C@H](C(=O)N(C)[C@@H](Cc2ccccc2)C(=O)N[C@@H](C)C(=O)N2CCCCC2)CC(=O)N[C@H](C(C)C)C(=O)N(C)[C@@H](C)C(=O)N(C)[C@@H](Cc2ccccc2)C(=O)N(C)[C@@H](C)C(=O)N[C@@H](CCCCN(C)C)C(=O)N(C)CC(=O)N[C@@H](C(C)C)C(=O)N1C [DP-631] ([dV][NMeA][NMeF][NMeA][Lys(Me2)][Sar]V[NMeL][NMeL]D[NMeF]A-Piperidide; lactam N-10)	5 µL/min/mg	1.6 ×10⁻⁶ cm/s		
